# Measurements from patent US5843750A, “Sorbitol kinase, process for producing the same, and substantially pure microorganism” (priority 1994, dated 1998).
# Read-outs that look alike come from different tables or passages of the source.
# Legend:
# sorbitol kinase [1] = target: T1, sorbitol kinase (Enterobacter ludwigii, UniProt A0AAX3LD49); assay type: biochemical, Erwinia sp. SK-472-20; set-up: SK-472-20; details: for Relative activity as phosphate donor: activity for ATP (final concentration 2 mM) set as 100%
# T1 sequence (A0AAX3LD49 entry or part of it): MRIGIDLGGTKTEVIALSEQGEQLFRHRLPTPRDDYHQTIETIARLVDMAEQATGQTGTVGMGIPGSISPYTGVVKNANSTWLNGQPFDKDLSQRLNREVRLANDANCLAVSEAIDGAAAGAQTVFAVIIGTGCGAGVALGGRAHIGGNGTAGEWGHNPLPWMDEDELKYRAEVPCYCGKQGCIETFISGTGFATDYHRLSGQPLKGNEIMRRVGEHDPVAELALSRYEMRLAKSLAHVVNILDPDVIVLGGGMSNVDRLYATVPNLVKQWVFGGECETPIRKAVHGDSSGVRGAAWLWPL
# Procedure: One milliliter of a reaction mixture consisting of 0.2M Tris-HCl buffer solution (pH 8.5) 0.2 ml, 0.1M ATP 0.02 ml, 0.1M MgCl2 0.02 ml, 100 U/ml sorbitol-6-phosphate dehydrogenase (refer to referential example) 0.05 ml, 10 mM NAD 0.1 ml, 100 U/ml diaphorase (Asahi Chemical Ind. Co.) 0.05 ml, 0.25% NTB 0.1 ml, 1M sorbitol 0.1 ml, 10% Triton X-100 0.01 ml and distilled water 0.3 ml was pre-heated at 37° C. for 1 minute, and the enzyme solution 20 μl was added thereto, then the mixture was incubated for 10 minutes.
# Reaction was terminated by adding 0.1N HCl 2 ml and optical density of the mixture was measured using 1.0 cm cell at 550 nm within 5 minutes (As). Also optical density of distilled water 20 μl in place of the enzyme solution was measured in the same manner as above as a blank test (Ab). Enzymatic activity is determined by difference in the absorption between the optical density of the enzyme solution (As) and the blank test (Ab), i.e. (As-Ab). A unit of enzyme activity is defined as an amount of enzyme which generate 1 μm of reduced NAD in one minutes at 37° C. and calculated by the following equation.
# Enzyme activity (U/ml)=(As-AB)×0.795×dilution rate of enzyme
# [2] = tested on: sorbitol-6-phosphate dehydrogenase; assay type: biochemical, Comamonas sp. SY-77-1; details: for Relateive activity: 10 min; for Effect on sorbitol-6-phosphate dehydrogenase activity (in words): 1 mM metal ions; for Relative activity (5): substrate specificity of sorbitol-6-phosphate dehydrogenase, substance used as substrate
# Procedure: Reaction mixture 1 ml consisting of 0.2M Tris-HCl buffer solution (pH 8.0) 0.25 ml, 0.1M sorbitol-6-phosphate 0.2 ml, 10 mM NAD 0.1 ml, 100 U/ml diaphorase (Asahi Chemical Industry Co.) 0.05 ml, 0.25% NTB (nitrotetrazolium blue) 0.1 ml, 10% Triton X-100 0.01 ml and distilled water 0.29 ml was pre-heated at 37° C. for 1 minute. 0.02 ml of enzyme solution was added thereto and incubated for 10 minutes.
# 0.1N HCl 2 ml was added to stop the reaction, and within 5 minutes optical absorption of the reaction mixture was measured using pass length 1.0 cm cell at 550 nm (As). Optical density of the blank solution of distilled water 0.02 ml in place of the enzyme solution was measured by the same procedure (Ab). Enzyme activity was measured by the difference (As-Ab) between the optical density of the enzyme solution (As) and that of the blank (Ab). A unit of enzyme is defined as an enzyme amount which produces 1μ mole of reduced NAD at 37° C. for 1 minute. Equation is as follows.
# Enzyme activity (U/ml)=(As-Ab)×0.795×enzyme dilution rate
# sorbitol kinase [3] = target: T1, sorbitol kinase; assay type: biochemical, Erwinia sp. SK-472-20 gene expressed in E.coli; set-up: no tag mentioned; details: for Relative activity on substrate: sorbitol set at 100%
# Procedure: A reaction mixture 1 ml consisting of 100 mM Tris-HCl buffer solution (pH 8.5), 2 mM ATP, 2 mM MgCl2, 5 unit/ml sorbitol-6-phosphatedehydrogenase (refer to referential example 3), 1 mM NAD, 5 units/ml diaphorase (Asahi Chem. Ind. Co.), 0.025% nitrotetrazolium blue, 100 mMD-sorbitol and 0.1% Triton X-100 was incubated with the aliqluot diluted sonicated microbial cells 20 μl at 37° C. for 10 minutes. Reaction was stopped by adding 0.1N HCl 2.0 ml and the optical absorption at 550 nm was measured for determination of sorbitol kinase activity. For control study, sonicated E.coli DH1 harboring pUC118 was treated by the same way as above to determine activity of sorbitol kinase. […] Accordingly, the transformant having sorbitol kinase activity was confirmed. […] SK-472-20, consequently the physico-chemical properties of expressed protein was confirmed.
# [4] = substrate specificity of sorbitol kinase, substance used as substrate
# [5] = 1 mM metal ion on sorbitol-6-phosphate dehydrogenase, None = 100
# [6] = metal ion or chemical modifier 2 mM in the presence of 2 mM magnesium ion, None = 100
# [7] = enzyme produced by transformant
# [8] = sorbitol-6-phosphate dehydrogenase
molecule,measurement,setting,value
2-deoxyglucose,Relative activity (%),sorbitol kinase [1]; [4],0%
Nc1ncnc2c1ncn2[C@@H]1O[C@H](COP(=O)(O)OP(=O)(O)OP(=O)(O)O)[C@@H](O)[C@H]1O [ATP],Relative activity as phosphate donor,sorbitol kinase [1],100%
[Ba+2].[Cl-].[Cl-] [BaCl2],Relateive activity,[2]; [5],32
[Ca+2].[Cl-].[Cl-] [CaCl2],Relateive activity,[2]; [5],100
same,Relative activity (%),sorbitol kinase [1]; [6],44.6%
same,Effect on enzyme activity (in words),sorbitol kinase [3]; [7],activated
[Cl-].[Cl-].[Co+2] [CoCl2],Relateive activity,[2]; [5],100
same,Effect on sorbitol kinase activity (in words),"sorbitol kinase [1]; 2 mM, Table 2",inhibited
same,Relative activity (%),sorbitol kinase [1]; [6],17.3%
same,Effect on enzyme activity (in words),sorbitol kinase [3]; [7],inhibited
[Cl-].[Cs+] [CsCl],Relateive activity,[2]; [5],100
same,Relative activity (%),sorbitol kinase [1]; [6],85%
[Cl][Cu][Cl] [CuCl2],Relateive activity,[2]; [5],0
same,Effect on sorbitol-6-phosphate dehydrogenase activity (in words),[2],Strong inhibition
same,Effect on sorbitol kinase activity (in words),"sorbitol kinase [1]; 2 mM, Table 2",inhibited
same,Relative activity (%),sorbitol kinase [1]; [6],0%
same,Effect on enzyme activity (in words),sorbitol kinase [3]; [7],inhibited
O=C(O)CN(CCN(CC(=O)O)CC(=O)O)CC(=O)O [EDTA],Effect on sorbitol kinase activity (in words),sorbitol kinase [1],inhibited
same,Effect on enzyme activity (in words),sorbitol kinase [3],inhibited
O=C(CO)[C@@H](O)[C@H](O)[C@H](O)CO [Fructose],Relative activity (5),[2],0
same,Relative activity on substrate,sorbitol kinase [3]; [7],0%
Nc1nc2c(ncn2[C@@H]2O[C@H](COP(=O)(O)OP(=O)(O)OP(=O)(O)O)[C@@H](O)[C@H]2O)c(=O)[nH]1 [GTP],Relative activity as phosphate donor,sorbitol kinase [1],11.8%
O=P(O)(O)OC1O[C@H](CO)[C@H](O)[C@H](O)[C@H]1O (some centres unmarked) [Galactose-1-phosphate],Relative activity (5),[2],0
O=P(O)(O)OC[C@H]1OC(O)[C@H](O)[C@@H](O)[C@@H]1O (some centres unmarked) [Glucose-6-phosphate],Relative activity (5),[2],0
O=c1[nH]cnc2c1ncn2[C@@H]1O[C@H](COP(=O)(O)OP(=O)(O)OP(=O)(O)O)[C@@H](O)[C@H]1O [ITP],Relative activity as phosphate donor,sorbitol kinase [1],40.5%
O[C@H]1[C@H](O)[C@@H](O)[C@H](O)[C@@H](O)[C@H]1O [Inositol],Relative activity on substrate,sorbitol kinase [3]; [7],0%
[Cl-].[K+] [KCl],Relateive activity,[2]; [5],100
same,Effect on sorbitol kinase activity (in words),"sorbitol kinase [1]; 2 mM, Table 2",activated
same,Relative activity (%),sorbitol kinase [1]; [6],180%
OC[C@H]1O[C@@H](O[C@H]2[C@H](O)[C@@H](O)C(O)O[C@@H]2CO)[C@H](O)[C@@H](O)[C@H]1O (some centres unmarked) [Lactose],Relative activity (5),[2],0
same,Relative activity on substrate,sorbitol kinase [3]; [7],0%
[Cl-].[Li+] [LiCl],Relateive activity,[2]; [5],100
same,Relative activity (%),sorbitol kinase [1]; [6],74.3%
OC[C@H]1O[C@H](O[C@H]2[C@H](O)[C@@H](O)[C@H](O)O[C@@H]2CO)[C@H](O)[C@@H](O)[C@@H]1O [Maltose],Relative activity on substrate,sorbitol kinase [3]; [7],0%
OC[C@@H](O)[C@@H](O)[C@H](O)[C@H](O)CO [Mannitol],Relative activity (5),[2],0
[Cl-].[Cl-].[Mg+2] [MgCl2],Relateive activity,[2]; [5],100
[Cl][Mn][Cl] [MnCl2],Relateive activity,[2]; [5],40
NC(=O)c1ccc[n+]([C@@H]2O[C@H](COP(=O)([O-])OP(=O)(O)OC[C@H]3O[C@@H](n4cnc5c(N)ncnc54)[C@H](O)[C@@H]3O)[C@@H](O)[C@H]2O)c1 [NAD],Km,[2]; [8],130 ± 50 µM
[Cl-].[Na+] [NaCl],Relateive activity,"[2]; sorbitol-6-phosphate dehydrogenase, 1000 µM",100
same,Relative activity (%),sorbitol kinase [1],112%
[N-]=[N+]=[N-].[Na+] [NaN3],Relative activity (%),sorbitol kinase [1]; [6],123%
[Cl][Ni][Cl] [NiCl2],Relateive activity,[2]; [5],100
same,Effect on sorbitol kinase activity (in words),"sorbitol kinase [1]; 2 mM, Table 2",inhibited
same,Relative activity (%),sorbitol kinase [1]; [6],14.5%
same,Effect on enzyme activity (in words),sorbitol kinase [3]; [7],inhibited
[Cl][Pb][Cl] [PbCl2],Relateive activity,[2]; [5],2
same,Effect on sorbitol-6-phosphate dehydrogenase activity (in words),[2],Strong inhibition
OC[C@H]1O[C@@](CO)(O[C@H]2O[C@H](CO)[C@@H](O)[C@H](O)[C@H]2O)[C@@H](O)[C@@H]1O [Saccharose],Relative activity (5),[2],0
same,Relative activity on substrate,sorbitol kinase [3]; [7],0%
OC[C@@H](O)[C@@H](O)[C@H](O)[C@@H](O)CO [Sorbitol],Relative activity on substrate,sorbitol kinase [3]; [7],100%
OC[C@H]1O[C@H](O[C@H]2O[C@H](CO)[C@@H](O)[C@H](O)[C@H]2O)[C@H](O)[C@@H](O)[C@@H]1O [Treharose],Relative activity (5),[2],0
O=c1ccn([C@@H]2O[C@H](COP(=O)(O)OP(=O)(O)OP(=O)(O)O)[C@@H](O)[C@H]2O)c(=O)[nH]1 [UTP],Relative activity as phosphate donor,sorbitol kinase [1],3.6%
[Cl-].[Cl-].[Zn+2] [ZnCl2],Relateive activity,[2]; [5],6
"O=C(COP(=O)(O)O)[C@@H](O)[C@H](O)[C@H](O)COP(=O)(O)O [fructose-1,6-diphosphate]",Relative activity (5),[2],0
O=P(O)(O)OC[C@H]1OC(O)[C@H](O)[C@@H](O)[C@H]1O (some centres unmarked) [galactose-6-phosphate],Relative activity (5),[2],0
O=P(O)(O)OC1O[C@H](CO)[C@@H](O)[C@H](O)[C@H]1O (some centres unmarked) [glucose-1-phosphate],Relative activity (5),[2],0
C=C(OP(=O)(O)O)C(=O)O [phosphoenolpyruvate],Utilization as phosphate donor,sorbitol kinase [1]; phosphoenolpyruvate used in place of ATP in the enzyme assay,No substantial utilization
same,Utilization as phosphate donor,sorbitol kinase [3]; [7],substantially not
O=P(O)(O)OC[C@@H](O)[C@@H](O)[C@H](O)[C@@H](O)CO [sorbitol-6-phosphate],Km,[2]; [8],2000 ± 500 µM
same,Relative activity (5),[2],100
NC(=S)c1ccc[n+]([C@@H]2O[C@H](COP(=O)([O-])OP(=O)(O)OC[C@H]3O[C@@H](n4cnc5c(N)ncnc54)[C@H](O)[C@@H]3O)[C@@H](O)[C@H]2O)c1 [thio NAD],Km,[2]; [8],140 ± 50 µM
Galactose,Relative activity (5),[2],0
same,Relative activity (%),sorbitol kinase [1]; [4],0%
same,Relative activity on substrate,sorbitol kinase [3]; [7],0%
Glucose,Relative activity (5),[2],0
same,Relative activity (%),sorbitol kinase [1]; [4],0%
same,Relative activity on substrate,sorbitol kinase [3]; [7],0%
Mannose,Relative activity (5),[2],0
same,Relative activity (%),sorbitol kinase [1]; [4],0%
same,Relative activity on substrate,sorbitol kinase [3]; [7],0%
Xylose,Relative activity (%),sorbitol kinase [1]; [4],0%
